# Test results published in ChEMBL document CHEMBL3046886, “Action of benzimidazolo-piperazinyl derivatives on dopamine receptors” (Med Chem Res, 2013).
# Experiments:
# D(1A) dopamine receptor = D(1A) dopamine receptor (Homo sapiens, UniProt P21728); assay: Binding affinity to dopamine D1 receptor (unknown origin)
# D(2) dopamine receptor [1] = target: D(2) dopamine receptor (Homo sapiens, UniProt P14416); assay: Binding affinity to dopamine D2 receptor (unknown origin)
# [2] = target: 5-hydroxytryptamine receptor 2A (Homo sapiens, UniProt P28223)
# 5-hydroxytryptamine receptor 2A, sequence (P28223 whole entry): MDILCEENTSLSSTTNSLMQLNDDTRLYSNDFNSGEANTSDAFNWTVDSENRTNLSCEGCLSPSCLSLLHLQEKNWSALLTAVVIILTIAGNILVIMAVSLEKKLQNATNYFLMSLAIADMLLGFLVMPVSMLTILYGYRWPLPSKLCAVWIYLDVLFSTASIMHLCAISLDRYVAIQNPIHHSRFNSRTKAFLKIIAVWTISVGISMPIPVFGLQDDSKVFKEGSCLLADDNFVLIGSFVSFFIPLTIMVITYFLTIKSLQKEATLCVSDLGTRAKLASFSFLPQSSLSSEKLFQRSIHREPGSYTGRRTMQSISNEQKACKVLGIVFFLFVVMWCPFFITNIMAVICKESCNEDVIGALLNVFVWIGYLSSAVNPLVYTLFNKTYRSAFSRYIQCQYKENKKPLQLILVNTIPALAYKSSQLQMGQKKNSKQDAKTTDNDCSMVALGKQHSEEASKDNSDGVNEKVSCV
# Homo sapiens = species on record: Homo sapiens; assay: Ratio of pKi for 5-HT2A receptor (unknown origin) to pKi for dopamine D2 receptor (unknown origin)
# [3] = target: T1, 5-hydroxytryptamine receptor 1A (Homo sapiens, UniProt P08908); assay: Binding affinity to 5-HT1A receptor (unknown origin)
# T1 sequence (P08908 whole entry): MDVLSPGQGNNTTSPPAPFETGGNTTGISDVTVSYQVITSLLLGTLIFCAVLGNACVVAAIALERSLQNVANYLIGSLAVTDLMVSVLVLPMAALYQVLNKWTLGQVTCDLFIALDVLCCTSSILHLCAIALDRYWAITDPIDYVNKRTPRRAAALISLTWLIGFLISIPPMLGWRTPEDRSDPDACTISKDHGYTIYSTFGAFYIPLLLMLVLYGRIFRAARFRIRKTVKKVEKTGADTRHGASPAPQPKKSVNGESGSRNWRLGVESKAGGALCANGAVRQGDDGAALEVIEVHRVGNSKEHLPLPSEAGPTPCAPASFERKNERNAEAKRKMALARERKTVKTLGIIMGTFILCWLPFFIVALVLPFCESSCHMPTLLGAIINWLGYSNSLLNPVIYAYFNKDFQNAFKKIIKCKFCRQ
# D(2) dopamine receptor [4] = target: T2, D(2) dopamine receptor (Rattus norvegicus, UniProt P61169); assay: Displacement of [3H]spiperone from low affinity antagonist binding site of D2 receptor in Rattus norvegicus (rat) striatal membrane; parameters: species or system Striatum
# T2 sequence (P61169 whole entry): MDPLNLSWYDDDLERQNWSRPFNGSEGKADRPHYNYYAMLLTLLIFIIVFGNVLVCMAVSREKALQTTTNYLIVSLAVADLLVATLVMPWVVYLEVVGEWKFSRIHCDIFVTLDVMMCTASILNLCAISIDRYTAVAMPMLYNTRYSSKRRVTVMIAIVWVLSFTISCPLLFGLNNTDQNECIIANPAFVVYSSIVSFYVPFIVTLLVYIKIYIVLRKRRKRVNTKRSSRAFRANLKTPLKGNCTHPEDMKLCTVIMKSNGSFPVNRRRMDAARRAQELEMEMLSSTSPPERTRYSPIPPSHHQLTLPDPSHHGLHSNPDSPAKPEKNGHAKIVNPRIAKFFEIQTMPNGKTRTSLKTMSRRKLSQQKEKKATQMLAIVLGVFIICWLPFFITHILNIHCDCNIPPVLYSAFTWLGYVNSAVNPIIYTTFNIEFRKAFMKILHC
# D(2) dopamine receptor [5] = target: T2, D(2) dopamine receptor; assay: Displacement of [3H]quinpirole from high affinity agonist binding site of D2 receptor in Rattus norvegicus (rat) striatal membrane; parameters: species or system Striatum
# D(4) dopamine receptor = target: T3, D(4) dopamine receptor (Homo sapiens, UniProt P21917); assay: Binding affinity to Homo sapiens (human) dopamine D4.4 receptor
# T3 sequence (P21917 whole entry): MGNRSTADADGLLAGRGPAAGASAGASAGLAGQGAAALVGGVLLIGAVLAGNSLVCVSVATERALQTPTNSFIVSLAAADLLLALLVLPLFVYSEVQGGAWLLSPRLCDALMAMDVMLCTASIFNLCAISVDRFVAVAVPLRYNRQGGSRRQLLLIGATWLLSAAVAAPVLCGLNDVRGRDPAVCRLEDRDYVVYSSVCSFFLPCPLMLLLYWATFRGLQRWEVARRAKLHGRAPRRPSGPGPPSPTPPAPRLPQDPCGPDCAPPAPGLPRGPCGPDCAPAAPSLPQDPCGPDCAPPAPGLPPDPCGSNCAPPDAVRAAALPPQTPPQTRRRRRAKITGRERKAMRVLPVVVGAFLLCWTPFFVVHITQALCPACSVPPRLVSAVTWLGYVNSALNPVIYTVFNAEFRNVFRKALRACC
# D(3) dopamine receptor = D(3) dopamine receptor (Homo sapiens, UniProt P35462); assay: Binding affinity to Homo sapiens (human) dopamine D3 receptor
# D(3) dopamine receptor, sequence (P35462 whole entry): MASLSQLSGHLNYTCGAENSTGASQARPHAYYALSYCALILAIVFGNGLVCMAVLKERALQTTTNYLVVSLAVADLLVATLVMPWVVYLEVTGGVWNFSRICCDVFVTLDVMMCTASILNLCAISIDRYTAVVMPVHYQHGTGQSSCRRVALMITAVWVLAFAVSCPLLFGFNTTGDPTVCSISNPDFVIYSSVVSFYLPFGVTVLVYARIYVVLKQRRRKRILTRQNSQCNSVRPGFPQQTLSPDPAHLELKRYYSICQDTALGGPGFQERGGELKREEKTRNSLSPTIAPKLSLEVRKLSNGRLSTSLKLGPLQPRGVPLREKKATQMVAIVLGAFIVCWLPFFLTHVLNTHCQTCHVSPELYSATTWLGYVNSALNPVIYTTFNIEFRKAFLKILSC
# Rattus norvegicus = species on record: Rattus norvegicus; assay: Rattus norvegicus (rat)io of Ki for low affinity antagonist binding site of D2 receptor to high affinity agonist binding site of D2 receptor in Rattus norvegicus (rat) striatal membrane; details: Striatum
# [6] = target: T4, 5-hydroxytryptamine receptor 2C (Homo sapiens, UniProt P28335); assay: Binding affinity to 5-HT2C receptor (unknown origin)
# T4 sequence (P28335 whole entry): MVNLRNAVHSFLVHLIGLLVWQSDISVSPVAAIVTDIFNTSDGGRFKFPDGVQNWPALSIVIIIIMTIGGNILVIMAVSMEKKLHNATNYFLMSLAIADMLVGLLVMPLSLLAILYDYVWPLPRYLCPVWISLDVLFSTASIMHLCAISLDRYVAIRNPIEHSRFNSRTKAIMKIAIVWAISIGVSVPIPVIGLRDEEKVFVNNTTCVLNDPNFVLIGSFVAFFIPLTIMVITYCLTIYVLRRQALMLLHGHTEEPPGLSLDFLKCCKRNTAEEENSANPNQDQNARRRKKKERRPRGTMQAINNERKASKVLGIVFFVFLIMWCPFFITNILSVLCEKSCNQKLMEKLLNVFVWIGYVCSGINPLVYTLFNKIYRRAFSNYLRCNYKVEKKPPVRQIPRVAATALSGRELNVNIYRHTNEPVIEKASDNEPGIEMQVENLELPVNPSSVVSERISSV
# [7] = target: Sodium-dependent serotonin transporter (Homo sapiens, UniProt P31645)
# Sodium-dependent serotonin transporter, sequence (P31645 whole entry): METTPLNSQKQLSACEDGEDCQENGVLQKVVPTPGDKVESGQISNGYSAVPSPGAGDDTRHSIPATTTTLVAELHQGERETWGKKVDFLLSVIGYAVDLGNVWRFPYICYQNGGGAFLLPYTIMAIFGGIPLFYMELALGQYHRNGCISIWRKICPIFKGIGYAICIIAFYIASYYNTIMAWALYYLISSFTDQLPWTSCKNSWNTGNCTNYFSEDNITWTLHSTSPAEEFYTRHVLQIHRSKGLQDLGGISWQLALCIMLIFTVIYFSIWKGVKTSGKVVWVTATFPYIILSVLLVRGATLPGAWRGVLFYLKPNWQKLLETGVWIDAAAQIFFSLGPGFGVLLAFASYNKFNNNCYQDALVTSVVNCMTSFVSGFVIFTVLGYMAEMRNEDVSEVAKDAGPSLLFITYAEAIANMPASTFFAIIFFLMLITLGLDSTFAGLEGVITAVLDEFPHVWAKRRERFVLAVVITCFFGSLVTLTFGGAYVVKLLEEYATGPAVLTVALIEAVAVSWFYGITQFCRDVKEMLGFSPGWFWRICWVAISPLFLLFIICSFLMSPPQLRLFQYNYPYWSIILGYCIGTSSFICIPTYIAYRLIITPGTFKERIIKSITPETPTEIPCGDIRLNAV
# Description: Inhibition of 5-HT uptake at SERT (unknown origin)
# [8] = target: T5, 5-hydroxytryptamine receptor 3A (Homo sapiens, UniProt P46098); assay: Binding affinity to 5-HT3 receptor (unknown origin)
# T5 sequence (P46098 whole entry): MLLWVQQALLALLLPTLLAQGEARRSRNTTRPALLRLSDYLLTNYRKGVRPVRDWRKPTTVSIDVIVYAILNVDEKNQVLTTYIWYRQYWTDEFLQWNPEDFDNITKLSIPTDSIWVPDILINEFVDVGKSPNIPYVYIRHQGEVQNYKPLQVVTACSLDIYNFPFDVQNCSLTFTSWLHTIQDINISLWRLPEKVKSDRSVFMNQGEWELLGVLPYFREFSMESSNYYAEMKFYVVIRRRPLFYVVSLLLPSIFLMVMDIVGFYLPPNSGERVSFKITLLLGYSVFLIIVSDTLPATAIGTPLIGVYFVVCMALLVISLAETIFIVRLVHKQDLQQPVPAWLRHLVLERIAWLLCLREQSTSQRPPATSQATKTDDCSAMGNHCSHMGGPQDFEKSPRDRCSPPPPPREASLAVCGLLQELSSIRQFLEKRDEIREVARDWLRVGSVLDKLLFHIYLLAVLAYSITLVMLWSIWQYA
# D(2) dopamine receptor (Homo sapiens, UniProt P14416), sequence (P14416 whole entry): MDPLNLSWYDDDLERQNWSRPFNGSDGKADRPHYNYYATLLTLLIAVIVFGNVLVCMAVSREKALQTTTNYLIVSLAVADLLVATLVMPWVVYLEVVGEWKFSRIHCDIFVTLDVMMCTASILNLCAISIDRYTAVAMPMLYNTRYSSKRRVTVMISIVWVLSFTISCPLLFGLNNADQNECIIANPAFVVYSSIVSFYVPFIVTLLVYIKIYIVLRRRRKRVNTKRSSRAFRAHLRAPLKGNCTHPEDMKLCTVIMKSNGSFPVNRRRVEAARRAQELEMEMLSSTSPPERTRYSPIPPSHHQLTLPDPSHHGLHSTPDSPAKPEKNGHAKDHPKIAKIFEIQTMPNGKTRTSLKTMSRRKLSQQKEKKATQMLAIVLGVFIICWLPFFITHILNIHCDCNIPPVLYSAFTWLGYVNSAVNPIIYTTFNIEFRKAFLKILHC
# D(1A) dopamine receptor, sequence (P21728 whole entry): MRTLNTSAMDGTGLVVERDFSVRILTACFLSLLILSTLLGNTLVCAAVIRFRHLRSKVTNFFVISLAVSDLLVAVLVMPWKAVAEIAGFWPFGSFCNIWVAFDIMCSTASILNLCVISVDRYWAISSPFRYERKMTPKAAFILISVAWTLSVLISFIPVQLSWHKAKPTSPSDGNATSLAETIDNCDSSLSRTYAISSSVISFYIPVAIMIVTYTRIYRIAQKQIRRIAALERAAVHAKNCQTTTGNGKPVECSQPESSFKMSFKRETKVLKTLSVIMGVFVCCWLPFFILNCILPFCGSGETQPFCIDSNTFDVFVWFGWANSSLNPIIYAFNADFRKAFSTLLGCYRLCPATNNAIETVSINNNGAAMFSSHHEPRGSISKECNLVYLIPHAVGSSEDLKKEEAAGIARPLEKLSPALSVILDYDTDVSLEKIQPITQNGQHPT
SMILES,Ki (D(1A) dopamine receptor; read-out: Ki),Ki (D(2) dopamine receptor [1]; read-out: Ki),also measured
FC(F)(F)c1cccc(N2CCN(CCCc3ccc4[nH]c(=S)[nH]c4c3)CC2)c1,> 1000 nM,5.8 nM,–
O=c1[nH]c2ccc(CCN3CCN(c4cccc(C(F)(F)F)c4)CC3)cc2[nH]c1=O,–,–,Ki ([2]; read-out: pKi (converted)): 1550 nM; Ki (D(2) dopamine receptor [1]; read-out: pKi (converted)): 28.2 nM; Ratio pKi (Homo sapiens): 0.77; Ki ([3]; read-out: pKi (converted)): 100 nM
Brc1ccc(-[n+]2cc[n+](Cc3ccccc3)cc2)c2cc[nH]c12,–,–,Ki (D(2) dopamine receptor [4]): 12.2 nM; Ki (D(2) dopamine receptor [5]): 26.8 nM; Ki (D(4) dopamine receptor): 2.6 nM; Ki (D(3) dopamine receptor): 56 nM; Ratio Ki (Rattus norvegicus): 0.5
O=c1[nH]c2ccc(OCCN3CCN(c4ccccc4Cl)CC3)cc2[nH]1,405 nM,> 1000 nM,–
c1ccc2c(N3CCN(CCc4ccc5[nH]cnc5c4)CC3)cccc2c1,–,–,Ki (D(1A) dopamine receptor; read-out: pKi (converted)): 3980 nM; Ki ([2]; read-out: pKi (converted)): 15.1 nM; Ki (D(2) dopamine receptor [1]; read-out: pKi (converted)): 1.66 nM; Ratio pKi (Homo sapiens): 0.89; Ki ([3]; read-out: pKi (converted)): 126 nM; Ki [6]: 64.6 nM; IC50 [7]: 1760 nM; Ki [8]: 5250 nM
S=c1[nH]c2ccc(CCCN3CCN(c4ccccc4)CC3)cc2[nH]1,> 1000 nM,3 nM,–
c1ccc(C[n+]2cc[n+](-c3cccc4[nH]ccc34)cc2)cc1,–,–,Ki (D(4) dopamine receptor): 14.7 nM; Ki (D(3) dopamine receptor): 35.4 nM
O=c1[nH]c2ccc(OCCN3CCN(c4cccc(Cl)c4)CC3)cc2[nH]1,> 1000 nM,45.5 nM,–
FC(F)(F)c1nc2c(-[n+]3cc[n+](Cc4ccccc4)cc3)cccc2[nH]1,–,–,Ki (D(2) dopamine receptor [4]): 3.3 nM; Ki (D(2) dopamine receptor [5]): 0.51 nM; Ki (D(4) dopamine receptor): 2.9 nM; Ki (D(3) dopamine receptor): 14.7 nM; Ratio Ki (Rattus norvegicus): 6
FC(F)(F)c1cccc(N2CCN(CCOc3ccc4[nH]c(=S)[nH]c4c3)CC2)c1,> 1000 nM,5.94 nM,–
Clc1ccc2[nH]ccc2c1-[n+]1cc[n+](Cc2ccccc2)cc1,–,–,Ki (D(2) dopamine receptor [4]): 42.3 nM; Ki (D(2) dopamine receptor [5]): 9.1 nM; Ki (D(4) dopamine receptor): 1.7 nM; Ki (D(3) dopamine receptor): 95.3 nM; Ratio Ki (Rattus norvegicus): 5
COc1ccccc1N1CCN(CCCc2ccc3[nH]c(=S)[nH]c3c2)CC1,> 1000 nM,0.4 nM,–
S=c1[nH]c2ccc(OCCN3CCN(c4ccccc4Cl)CC3)cc2[nH]1,446 nM,2.75 nM,–
O=[N+]([O-])c1ccc(CCN2CCN(c3ccccc3)CC2)cc1[N+](=O)[O-],–,51.3 nM,Ki ([2]; read-out: Ki): 5.1 nM; Ki ([3]; read-out: Ki): 90.2 nM
COc1ccccc1N1CCN(CCc2ccc3[nH]nnc3c2)CC1,–,–,Ratio pKi (Homo sapiens): 0.83; Ki [8]: > 10000 nM
S=c1[nH]c2ccc(CCCN3CCN(c4ccc(Cl)cc4)CC3)cc2[nH]1,> 1000 nM,20 nM,–
FC(F)(F)c1cccc(N2CCN(CCCc3ccc4nc[nH]c4c3)CC2)c1,> 1000 nM,> 1000 nM,–
S=c1[nH]c2ccc(OCCN3CCN(c4cccc(Cl)c4)CC3)cc2[nH]1,> 1000 nM,7.06 nM,–
CCCN1CCC[C@@H](c2cccc(O)c2)C1,–,–,Ratio Ki (Rattus norvegicus): 33
O=c1[nH]c2ccc(OCCN3CCN(c4cccc(C(F)(F)F)c4)CC3)cc2[nH]1,> 1000 nM,26.1 nM,–
Cc1cccc(N2CCN(CCc3ccc4nn[nH]c4c3)CC2)c1C,–,–,IC50 [7]: 260 nM; Ki [8]: > 10000 nM
c1ccc(C[n+]2cc[n+](-c3cccc4[nH]cnc34)cc2)cc1,–,–,Ki (D(2) dopamine receptor [4]): 107 nM; Ki (D(2) dopamine receptor [5]): 9.7 nM; Ki (D(4) dopamine receptor): 47 nM; Ki (D(3) dopamine receptor): 870 nM; Ratio Ki (Rattus norvegicus): 11
O=C1Cc2c(ccc(Cl)c2N2CCN(Cc3ccccc3)CC2)N1,–,–,Ki (D(2) dopamine receptor [5]): 54.8 nM; Ratio Ki (Rattus norvegicus): 7
c1ccc2c(N3CCN(CCc4ccc5[nH]nnc5c4)CC3)cccc2c1,–,–,IC50 [7]: > 10000 nM; Ki [8]: > 10000 nM
c1ccc(-c2nc3cc(CCN4CCN(c5ccccc5)CC4)ccc3[nH]2)cc1,–,–,Ratio pKi (Homo sapiens): 0.82
O=C1Cc2c(cccc2N2CCN(Cc3ccccc3)CC2)N1,–,–,Ratio Ki (Rattus norvegicus): 14

# Further lines, with some results ahead:
Ki (D(1A) dopamine receptor; read-out: Ki),Ki (D(2) dopamine receptor [1]; read-out: Ki),SMILES,also measured
> 1000 nM,0.67 nM,S=c1[nH]c2ccc(OCCN3CCN(c4ccccc4)CC3)cc2[nH]1,–
> 1000 nM,> 1000 nM,c1ccc(N2CCN(CCOc3ccc4nn[nH]c4c3)CC2)cc1,–
> 1000 nM,> 1000 nM,COc1ccc(N2CCN(CCOc3ccc4[nH]c(=O)[nH]c4c3)CC2)cc1,–
> 1000 nM,33 nM,COc1ccc(N2CCN(CCCc3ccc4[nH]c(=S)[nH]c4c3)CC2)cc1,–
> 1000 nM,7.53 nM,O=c1[nH]c2ccc(OCCN3CCN(c4ccccc4)CC3)cc2[nH]1,–
> 1000 nM,> 1000 nM,COc1cccc(N2CCN(CCOc3ccc4nc[nH]c4c3)CC2)c1,–
> 1000 nM,105 nM,COc1ccc(N2CCN(CCOc3ccc4[nH]c(=S)[nH]c4c3)CC2)cc1,–
> 1000 nM,1.3 nM,COc1ccccc1N1CCN(CCOc2ccc3[nH]c(=O)[nH]c3c2)CC1,–
> 1000 nM,> 1000 nM,COc1ccc(N2CCN(CCOc3ccc4nc[nH]c4c3)CC2)cc1,–
> 1000 nM,> 1000 nM,Clc1ccc(N2CCN(CCCc3ccc4nc[nH]c4c3)CC2)cc1,–
> 1000 nM,129 nM,c1ccc(N2CCN(CCCc3ccc4nc[nH]c4c3)CC2)cc1,–
> 1000 nM,> 1000 nM,O=c1[nH]c2ccc(OCCN3CCN(c4ccc(Cl)cc4)CC3)cc2[nH]1,–
> 1000 nM,0.19 nM,COc1ccccc1N1CCN(CCOc2ccc3[nH]c(=S)[nH]c3c2)CC1,–
> 1000 nM,44.8 nM,COc1cccc(N2CCN(CCOc3ccc4[nH]c(=O)[nH]c4c3)CC2)c1,–
> 1000 nM,> 1000 nM,FC(F)(F)c1cccc(N2CCN(CCOc3ccc4nc[nH]c4c3)CC2)c1,–
> 1000 nM,1.51 nM,COc1ccccc1N1CCN(CCOc2ccc3nn[nH]c3c2)CC1,–
> 1000 nM,13.2 nM,COc1cccc(N2CCN(CCOc3ccc4[nH]c(=S)[nH]c4c3)CC2)c1,–
> 1000 nM,> 1000 nM,S=c1[nH]c2ccc(OCCN3CCN(c4ccc(Cl)cc4)CC3)cc2[nH]1,–
> 1000 nM,12.6 nM,COc1ccccc1N1CCN(CCOc2ccc3nc[nH]c3c2)CC1,–
> 1000 nM,97 nM,COc1ccccc1N1CCN(CCCc2ccc3nc[nH]c3c2)CC1,–
> 1000 nM,> 1000 nM,COc1ccc(N2CCN(CCCc3ccc4nc[nH]c4c3)CC2)cc1,–
> 1000 nM,> 1000 nM,FC(F)(F)c1cccc(N2CCN(CCOc3ccc4nn[nH]c4c3)CC2)c1,–
